Measurements as given in patent US20260158017A1, “KIF18A INHIBITOR” (WIGEN BIOMEDICINE TECHNOLOGY (SHANGHAI) CO., LTD., priority 2021, published 2026).

target: T1, Recombinant human KIF18A (1-467His-tagged) protein (Homo sapiens, UniProt Q8NI77); test: KIF18A enzyme assay (microtubule-stimulated ATPase activity, ADP-Glo); format: biochemical; settings: 30 nM KIF18A, 75 μM ATP, 30 μg/mL pig microtubules; read-out: Inhibitory activity against KIF18A IC50
T1 construct: Recombinant human KIF18A (1-467His-tagged) protein; His; made in house
Summary of the method: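 Buffer 15 mM Tris pH 7.5, 10 mM MgCl2, 0.01% Pluronic F-68, 1 μM paclitaxel, 30 μg/mL pig microtubules; reactions at room temperature. IC50 from inhibition relative to DMSO.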

T1 sequence (Q8NI77 1-467): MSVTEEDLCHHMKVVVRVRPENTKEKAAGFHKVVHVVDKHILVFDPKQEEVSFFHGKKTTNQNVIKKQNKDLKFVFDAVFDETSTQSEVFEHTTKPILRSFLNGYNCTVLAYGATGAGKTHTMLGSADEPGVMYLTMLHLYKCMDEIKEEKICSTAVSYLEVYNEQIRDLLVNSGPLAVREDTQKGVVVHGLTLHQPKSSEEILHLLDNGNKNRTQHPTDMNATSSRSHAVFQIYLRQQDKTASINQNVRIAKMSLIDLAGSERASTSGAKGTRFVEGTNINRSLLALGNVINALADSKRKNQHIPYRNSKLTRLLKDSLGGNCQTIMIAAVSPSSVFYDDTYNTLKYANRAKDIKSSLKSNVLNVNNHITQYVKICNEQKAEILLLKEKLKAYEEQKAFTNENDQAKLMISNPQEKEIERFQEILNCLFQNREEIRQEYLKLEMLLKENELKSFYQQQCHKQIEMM
T1 sequence (P02550 whole entry partner): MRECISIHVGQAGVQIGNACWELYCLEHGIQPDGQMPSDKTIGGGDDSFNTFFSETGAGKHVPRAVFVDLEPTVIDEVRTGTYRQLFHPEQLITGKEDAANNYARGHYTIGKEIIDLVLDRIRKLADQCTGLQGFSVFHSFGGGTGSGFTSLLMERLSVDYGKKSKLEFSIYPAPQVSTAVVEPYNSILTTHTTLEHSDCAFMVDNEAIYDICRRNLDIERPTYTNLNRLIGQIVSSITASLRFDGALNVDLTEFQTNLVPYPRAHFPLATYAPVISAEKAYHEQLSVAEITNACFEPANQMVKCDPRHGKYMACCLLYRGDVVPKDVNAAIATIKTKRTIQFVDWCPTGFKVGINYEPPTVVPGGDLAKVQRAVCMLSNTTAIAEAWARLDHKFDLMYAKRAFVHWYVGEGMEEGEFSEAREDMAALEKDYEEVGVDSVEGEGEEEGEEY
T1 sequence (P02554 whole entry partner): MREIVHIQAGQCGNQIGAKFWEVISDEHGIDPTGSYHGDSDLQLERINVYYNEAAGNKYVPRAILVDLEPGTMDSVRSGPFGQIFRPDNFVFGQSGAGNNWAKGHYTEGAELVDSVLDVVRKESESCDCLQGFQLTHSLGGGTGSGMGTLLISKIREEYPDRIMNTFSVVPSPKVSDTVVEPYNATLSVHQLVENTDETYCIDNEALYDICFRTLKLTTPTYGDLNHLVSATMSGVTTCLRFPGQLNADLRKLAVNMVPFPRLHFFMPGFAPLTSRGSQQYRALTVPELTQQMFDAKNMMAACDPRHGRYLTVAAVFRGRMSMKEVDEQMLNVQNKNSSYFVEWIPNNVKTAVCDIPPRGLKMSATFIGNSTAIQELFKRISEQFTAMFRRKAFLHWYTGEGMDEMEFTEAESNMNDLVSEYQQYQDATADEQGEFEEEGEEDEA

| Compound | IC50 [nM] |
| --- | --- |
| CC1(F)CCN(c2nc(NC(=O)c3cnc(S(=O)(=O)NCCO)cc3N3CCC4(CC3)CC4)ccc2[N+](=O)[O-])C1 (stereo not shown) [Compound 152] | ≤ 100 |
| O=C(Nc1ccc([N+](=O)[O-])c(N2CCC(F)CC2)n1)c1cnc(S(=O)(=O)NCCO)cc1N1CCC2(CC1)CC2 [Compound 153] | ≤ 100 |
| O=C(Nc1ccc([N+](=O)[O-])c(N2CC3CC3C2)n1)c1cnc(S(=O)(=O)NCCO)cc1N1CCC2(CC1)CC2 (stereo not shown) [Compound 154] | ≤ 100 |
| CC(C)(CO)Nc1nc(NC(=O)c2cnc(S(=O)(=O)NCCO)cc2N2CCC3(CC2)CC3)ccc1[N+](=O)[O-] [Compound 155] | ≤ 100 |
| O=C(Nc1ccc([N+](=O)[O-])c(N2CCOCC2)n1)c1cnc(S(=O)(=O)NCCO)cc1N1CCC2(CC1)CC2 [Compound 156] | ≤ 100 |
| C[C@@H](CO)NS(=O)(=O)c1cc(N2CCC3(CC2)CC3)c(C(=O)Nc2ccc([N+](=O)[O-])c(N3CCC(F)(F)CC3)n2)cn1 [Compound 157] | ≤ 100 |
| C[C@H](CO)NS(=O)(=O)c1cc(N2CCC3(CC2)CC3)c(C(=O)Nc2ccc([N+](=O)[O-])c(N3CCC(F)(F)CC3)n2)cn1 [Compound 158] | ≤ 100 |
| C[C@@H]1CN(c2nc(NC(=O)c3cnc(S(=O)(=O)N[C@@H](C)CO)cc3N3CCC4(CC3)CC4)ccc2[N+](=O)[O-])CCO1 [Compound 159] | ≤ 100 |
| C[C@H](CO)NS(=O)(=O)c1cc(N2CCC3(CC2)CC3)c(C(=O)Nc2ccc([N+](=O)[O-])c(N3CCO[C@H](C)C3)n2)cn1 [Compound 160] | ≤ 100 |
| C[C@@H]1CN(c2nc(C(=O)Nc3ccc(NS(=O)(=O)CCO)cc3N3CCC4(CC3)CC4)ccc2[N+](=O)[O-])CCO1 [Compound 162] | ≤ 100 |
| C[C@H]1CN(c2nc(C(=O)Nc3ccc(NS(=O)(=O)CCO)cc3N3CCC4(CC3)CC4)ccc2[N+](=O)[O-])CCO1 [Compound 163] | ≤ 100 |
| O=C(Nc1ccc(NS(=O)(=O)CCO)cc1N1CCC2(CC1)CC2)c1ccc([N+](=O)[O-])c(N2CC(F)(F)C2)n1 [Compound 164] | ≤ 100 |
| O=C(Nc1ccc(NS(=O)(=O)CCO)cc1N1CCC2(CC1)CC2)c1ccc([N+](=O)[O-])c(OCCC(F)(F)F)n1 [Compound 165] | ≤ 100 |
| O=C(Nc1ccc(NS(=O)(=O)CCO)cc1N1CCC2(CC1)CC2)c1ccc([N+](=O)[O-])c(N2CCC3(CC3)C2)n1 [Compound 166] | ≤ 100 |
| O=C(Nc1ccc(NS(=O)(=O)CCO)cc1N1CCC2(CC1)CC2)c1ccc([N+](=O)[O-])c(OC2CCC2)n1 [Compound 167] | ≤ 100 |
| CC1(F)CCN(c2nc(C(=O)Nc3ccc(NS(=O)(=O)CCO)cc3N3CCC4(CC3)CC4)ccc2[N+](=O)[O-])C1 (stereo not shown) [Compound 168] | ≤ 100 |
| O=C(Nc1ccc(NS(=O)(=O)CCO)cc1N1CCC2(CC1)CC2)c1ccc([N+](=O)[O-])c(N2CCC(F)CC2)n1 [Compound 169] | ≤ 100 |
| O=C(Nc1ccc(NS(=O)(=O)CCO)cc1N1CCC2(CC1)CC2)c1ccc([N+](=O)[O-])c(N2CC3CC3C2)n1 (stereo not shown) [Compound 170] | ≤ 100 |
| CC(C)(CO)Nc1nc(C(=O)Nc2ccc(NS(=O)(=O)CCO)cc2N2CCC3(CC2)CC3)ccc1[N+](=O)[O-] [Compound 171] | ≤ 100 |

| Compound | IC50 [nM] |
| --- | --- |
| O=C(Nc1ccc(NS(=O)(=O)CCO)cc1N1CCC2(CC1)CC2)c1ccc([N+](=O)[O-])c(N2CCOCC2)n1 [Compound 172] | ≤ 100 |
| C[C@@H](CO)S(=O)(=O)Nc1ccc(NC(=O)c2ccc([N+](=O)[O-])c(N3CCC(F)(F)CC3)n2)c(N2CCC3(CC2)CC3)c1 [Compound 173] | ≤ 100 |
| C[C@H](CO)S(=O)(=O)Nc1ccc(NC(=O)c2ccc([N+](=O)[O-])c(N3CCC(F)(F)CC3)n2)c(N2CCC3(CC2)CC3)c1 [Compound 174] | ≤ 100 |
| C[C@@H]1CN(c2nc(C(=O)Nc3ccc(NS(=O)(=O)[C@@H](C)CO)cc3N3CCC4(CC3)CC4)ccc2[N+](=O)[O-])CCO1 [Compound 175] | ≤ 100 |
| C[C@@H]1CN(c2nc(C(=O)Nc3ccc(NS(=O)(=O)[C@H](C)CO)cc3N3CCC4(CC3)CC4)ccc2[N+](=O)[O-])CCO1 [Compound 176] | ≤ 100 |
| O=C(Nc1ccc(S(=O)(=O)NCCO)cc1N1CCC2(CC1)CC2)c1ccc([N+](=O)[O-])c(N2CCC(F)(F)CC2)n1 [Compound 177] | 100 to 500 |
| C[C@@H]1CN(c2nc(C(=O)Nc3ccc(S(=O)(=O)NCCO)cc3N3CCC4(CC3)CC4)ccc2[N+](=O)[O-])CCO1 [Compound 178] | 100 to 500 |
| C[C@H]1CN(c2nc(C(=O)Nc3ccc(S(=O)(=O)NCCO)cc3N3CCC4(CC3)CC4)ccc2[N+](=O)[O-])CCO1 [Compound 179] | 100 to 500 |
| O=C(Nc1ccc(S(=O)(=O)NCCO)cc1N1CCC2(CC1)CC2)c1ccc([N+](=O)[O-])c(N2CC(F)(F)C2)n1 [Compound 180] | 100 to 500 |
| O=C(Nc1ccc(S(=O)(=O)NCCO)cc1N1CCC2(CC1)CC2)c1ccc([N+](=O)[O-])c(OCCC(F)(F)F)n1 [Compound 181] | 100 to 500 |
| O=C(Nc1ccc(S(=O)(=O)NCCO)cc1N1CCC2(CC1)CC2)c1ccc([N+](=O)[O-])c(N2CCC3(CC3)C2)n1 [Compound 182] | 100 to 500 |
| O=C(Nc1ccc(S(=O)(=O)NCCO)cc1N1CCC2(CC1)CC2)c1ccc([N+](=O)[O-])c(OC2CCC2)n1 [Compound 183] | 100 to 500 |
| CC1(F)CCN(c2nc(C(=O)Nc3ccc(S(=O)(=O)NCCO)cc3N3CCC4(CC3)CC4)ccc2[N+](=O)[O-])C1 (stereo not shown) [Compound 184] | 100 to 500 |
| O=C(Nc1ccc(S(=O)(=O)NCCO)cc1N1CCC2(CC1)CC2)c1ccc([N+](=O)[O-])c(N2CCC(F)CC2)n1 [Compound 185] | 100 to 500 |
| O=C(Nc1ccc(S(=O)(=O)NCCO)cc1N1CCC2(CC1)CC2)c1ccc([N+](=O)[O-])c(N2CC3CC3C2)n1 (stereo not shown) [Compound 186] | 100 to 500 |
| CC(C)(CO)Nc1nc(C(=O)Nc2ccc(S(=O)(=O)NCCO)cc2N2CCC3(CC2)CC3)ccc1[N+](=O)[O-] [Compound 187] | 100 to 500 |
| O=C(Nc1ccc(S(=O)(=O)NCCO)cc1N1CCC2(CC1)CC2)c1ccc([N+](=O)[O-])c(N2CCOCC2)n1 [Compound 188] | 100 to 500 |
| C[C@@H](CO)NS(=O)(=O)c1ccc(NC(=O)c2ccc([N+](=O)[O-])c(N3CCC(F)(F)CC3)n2)c(N2CCC3(CC2)CC3)c1 [Compound 189] | 100 to 500 |

Second part, the compound after the results:

| IC50 [nM] | Compound |
| --- | --- |
| 100 to 500 | C[C@H](CO)NS(=O)(=O)c1ccc(NC(=O)c2ccc([N+](=O)[O-])c(N3CCC(F)(F)CC3)n2)c(N2CCC3(CC2)CC3)c1 [Compound 190] |
| 100 to 500 | C[C@@H]1CN(c2nc(C(=O)Nc3ccc(S(=O)(=O)N[C@@H](C)CO)cc3N3CCC4(CC3)CC4)ccc2[N+](=O)[O-])CCO1 [Compound 191] |
| 100 to 500 | C[C@H](CO)NS(=O)(=O)c1ccc(NC(=O)c2ccc([N+](=O)[O-])c(N3CCO[C@H](C)C3)n2)c(N2CCC3(CC2)CC3)c1 [Compound 192] |
| ≤ 100 | O=C(Nc1cnc(NS(=O)(=O)CCO)cc1N1CCC2(CC1)CC2)c1ccc([N+](=O)[O-])c(N2CCC(F)(F)CC2)c1 [Compound 193] |
| ≤ 100 | C[C@@H]1CN(c2cc(C(=O)Nc3cnc(NS(=O)(=O)CCO)cc3N3CCC4(CC3)CC4)ccc2[N+](=O)[O-])CCO1 [Compound 194] |
| ≤ 100 | C[C@H]1CN(c2cc(C(=O)Nc3cnc(NS(=O)(=O)CCO)cc3N3CCC4(CC3)CC4)ccc2[N+](=O)[O-])CCO1 [Compound 195] |
| ≤ 100 | O=C(Nc1cnc(NS(=O)(=O)CCO)cc1N1CCC2(CC1)CC2)c1ccc([N+](=O)[O-])c(N2CC(F)(F)C2)c1 [Compound 196] |
| ≤ 100 | O=C(Nc1cnc(NS(=O)(=O)CCO)cc1N1CCC2(CC1)CC2)c1ccc([N+](=O)[O-])c(OCCC(F)(F)F)c1 [Compound 197] |
| ≤ 100 | O=C(Nc1cnc(NS(=O)(=O)CCO)cc1N1CCC2(CC1)CC2)c1ccc([N+](=O)[O-])c(N2CCC3(CC3)C2)c1 [Compound 198] |
| ≤ 100 | O=C(Nc1cnc(NS(=O)(=O)CCO)cc1N1CCC2(CC1)CC2)c1ccc([N+](=O)[O-])c(OC2CCC2)c1 [Compound 199] |
| ≤ 100 | CC1(F)CCN(c2cc(C(=O)Nc3cnc(NS(=O)(=O)CCO)cc3N3CCC4(CC3)CC4)ccc2[N+](=O)[O-])C1 (stereo not shown) [Compound 200] |
| ≤ 100 | O=C(Nc1cnc(NS(=O)(=O)CCO)cc1N1CCC2(CC1)CC2)c1ccc([N+](=O)[O-])c(N2CCC(F)CC2)c1 [Compound 201] |
| ≤ 100 | O=C(Nc1cnc(NS(=O)(=O)CCO)cc1N1CCC2(CC1)CC2)c1ccc([N+](=O)[O-])c(N2CC3CC3C2)c1 (stereo not shown) [Compound 202] |
| ≤ 100 | CC(C)(CO)Nc1cc(C(=O)Nc2cnc(NS(=O)(=O)CCO)cc2N2CCC3(CC2)CC3)ccc1[N+](=O)[O-] [Compound 203] |
| ≤ 100 | O=C(Nc1cnc(NS(=O)(=O)CCO)cc1N1CCC2(CC1)CC2)c1ccc([N+](=O)[O-])c(N2CCOCC2)c1 [Compound 204] |
| ≤ 100 | C[C@@H](CO)S(=O)(=O)Nc1cc(N2CCC3(CC2)CC3)c(NC(=O)c2ccc([N+](=O)[O-])c(N3CCC(F)(F)CC3)c2)cn1 [Compound 205] |
| ≤ 100 | C[C@H](CO)S(=O)(=O)Nc1cc(N2CCC3(CC2)CC3)c(NC(=O)c2ccc([N+](=O)[O-])c(N3CCC(F)(F)CC3)c2)cn1 [Compound 206] |
| ≤ 100 | C[C@@H]1CN(c2cc(C(=O)Nc3cnc(NS(=O)(=O)[C@@H](C)CO)cc3N3CCC4(CC3)CC4)ccc2[N+](=O)[O-])CCO1 [Compound 207] |
| ≤ 100 | C[C@@H]1CN(c2cc(C(=O)Nc3cnc(NS(=O)(=O)[C@H](C)CO)cc3N3CCC4(CC3)CC4)ccc2[N+](=O)[O-])CCO1 [Compound 208] |
| 100 to 500 | O=C(Nc1cnc(S(=O)(=O)NCCO)cc1N1CCC2(CC1)CC2)c1ccc([N+](=O)[O-])c(N2CCC(F)(F)CC2)c1 [Compound 209] |
| 100 to 500 | C[C@@H]1CN(c2cc(C(=O)Nc3cnc(S(=O)(=O)NCCO)cc3N3CCC4(CC3)CC4)ccc2[N+](=O)[O-])CCO1 [Compound 210] |
